In ChEMBL document CHEMBL3885881, “DrugMatrix”:

Organism: Rattus norvegicus
Assay: DrugMatrix - Regimen: Daily Repeat
Format: toxicity, organism-based, Sprague-Dawley
Set-up: regimen Daily Repeat, gender Male, age 6-8 weeks
Conditions: in vivo, po, route oral GAVAGE, […]; for ABSOLUTE BASOPHIL / ABSOLUTE EOSINOPHIL / ABSOLUTE LYMPHOCYTE / ABSOLUTE MONOCYTE / ABSOLUTE SEGMENTED NEUTROPHIL / BASOPHIL / EOSINOPHIL / ERYTHROCYTE COUNT / HEMATOCRIT / HEMOGLOBIN / LEUKOCYTE COUNT / LYMPHOCYTE / MEAN CORPUSCULAR HEMOGLOBIN / MEAN CORPUSCULAR HEMOGLOBIN CONCENTRATION / MEAN CORPUSCULAR VOLUME / MONOCYTE / NEUTROPHIL / NUCLEATED RED BLOOD CELLS / PLATELET COUNT: tissue Blood; for ALANINE AMINOTRANSFERASE / ALBUMIN / ALKALINE PHOSPHATASE / ASPARTATE AMINOTRANSFERASE / BLOOD UREA NITROGEN / CARBON DIOXIDE / CHLORIDE / CHOLESTEROL / CREATINE PHOSPHOKINASE / CREATININE / GLUCOSE / LACTATE DEHYDROGENASE / LIPASE / PHOSPHORUS / POTASSIUM / SODIUM / TOTAL BILIRUBIN / TOTAL PROTEIN / URIC ACID: tissue Plasma
[1] = 0 mg/kg, 72 h, dose level Control, time 3 day
[2] = 0 mg/kg, 120 h, dose level Control, time 5 day
[3] = 10 mg/kg, 72 h, dose level Low, time 3 day

Compound: c1ccc2[nH]c(-c3cscn3)nc2c1 [THIABENDAZOLE]
- ABSOLUTE BASOPHIL [1]: 0 CELLS/uL
- ABSOLUTE EOSINOPHIL [1]: 13.67 CELLS/uL
- ABSOLUTE LYMPHOCYTE [1]: 10069.5 CELLS/uL
- ABSOLUTE MONOCYTE [1]: 50 CELLS/uL
- ABSOLUTE SEGMENTED NEUTROPHIL [1]: 516.83 CELLS/uL
- BASOPHIL [1]: 0%
- EOSINOPHIL [1]: 0.17%
- ERYTHROCYTE COUNT [1]: 5.44 x10E6/uL
- HEMATOCRIT [1]: 33.88%
- HEMOGLOBIN [1]: 13.23 G/DL
- LEUKOCYTE COUNT [1]: 10.65 x10E3/uL
- LYMPHOCYTE [1]: 94.67%
- MEAN CORPUSCULAR HEMOGLOBIN [1]: 24.37 pg
- MEAN CORPUSCULAR HEMOGLOBIN CONCENTRATION [1]: 39.05 G/DL
- MEAN CORPUSCULAR VOLUME [1]: 62.38 fL
- MONOCYTE [1]: 0.67%
- NEUTROPHIL [1]: 4.5%
- NUCLEATED RED BLOOD CELLS [1]: 0.33 /100WBC
- PLATELET COUNT [1]: 414.5 x10E3/uL
- ALANINE AMINOTRANSFERASE [1]: 72 u/L
- ALBUMIN [1]: 3.75 G/DL
- ALKALINE PHOSPHATASE [1]: 375 u/L
- ASPARTATE AMINOTRANSFERASE [1]: 87.5 u/L
- BLOOD UREA NITROGEN [1]: 14 mg/dL
- CARBON DIOXIDE [1]: 27.5 mmol/L
- CHLORIDE [1]: 95.83 MEQ/L
- CHOLESTEROL [1]: 68.5 mg/dL
- CREATINE PHOSPHOKINASE [1]: 284.33 u/L
- CREATININE [1]: 0.16 mg/dL
- GLUCOSE [1]: 156.67 mg/dL
- LACTATE DEHYDROGENASE [1]: 101.83 u/L
- LIPASE [1]: 9.67 u/L
- PHOSPHORUS [1]: 10.33 mg/dL
- POTASSIUM [1]: 5.22 MEQ/L
- SODIUM [1]: 137.67 MEQ/L
- TOTAL BILIRUBIN [1]: 0.13 mg/dL
- TOTAL PROTEIN [1]: 5.43 G/DL
- URIC ACID [1]: 0.8 mg/dL
- ABSOLUTE BASOPHIL [2]: 0 CELLS/uL
- ABSOLUTE EOSINOPHIL [2]: 20.67 CELLS/uL
- ABSOLUTE LYMPHOCYTE [2]: 11518.33 CELLS/uL
- ABSOLUTE MONOCYTE [2]: 47 CELLS/uL
- ABSOLUTE SEGMENTED NEUTROPHIL [2]: 614 CELLS/uL
- BASOPHIL [2]: 0%
- EOSINOPHIL [2]: 0.17%
- ERYTHROCYTE COUNT [2]: 5.61 x10E6/uL
- HEMATOCRIT [2]: 34.25%
- HEMOGLOBIN [2]: 13.38 G/DL
- LEUKOCYTE COUNT [2]: 12.2 x10E3/uL
- LYMPHOCYTE [2]: 94.33%
- MEAN CORPUSCULAR HEMOGLOBIN [2]: 23.83 pg
- MEAN CORPUSCULAR HEMOGLOBIN CONCENTRATION [2]: 39.08 G/DL
- MEAN CORPUSCULAR VOLUME [2]: 61.03 fL
- MONOCYTE [2]: 0.33%
- NEUTROPHIL [2]: 5.17%
- NUCLEATED RED BLOOD CELLS [2]: 0 /100WBC
- PLATELET COUNT [2]: 941.83 x10E3/uL
- ALANINE AMINOTRANSFERASE [2]: 68.83 u/L
- ALBUMIN [2]: 4.12 G/DL
- ALKALINE PHOSPHATASE [2]: 492.67 u/L
- ASPARTATE AMINOTRANSFERASE [2]: 83.33 u/L
- BLOOD UREA NITROGEN [2]: 14 mg/dL
- CARBON DIOXIDE [2]: 37 mmol/L
- CHLORIDE [2]: 98.67 MEQ/L
- CHOLESTEROL [2]: 56.5 mg/dL
- CREATINE PHOSPHOKINASE [2]: 167.33 u/L
- CREATININE [2]: 0.17 mg/dL
- GLUCOSE [2]: 157.5 mg/dL
- LACTATE DEHYDROGENASE [2]: 104.83 u/L
- LIPASE [2]: 10 u/L
- PHOSPHORUS [2]: 10.43 mg/dL
- POTASSIUM [2]: 5.46 MEQ/L
- SODIUM [2]: 143.87 MEQ/L
- TOTAL BILIRUBIN [2]: 0.17 mg/dL
- TOTAL PROTEIN [2]: 5.72 G/DL
- URIC ACID [2]: 0.85 mg/dL
- ABSOLUTE BASOPHIL [3]: 0 CELLS/uL
- ABSOLUTE EOSINOPHIL [3]: 0 CELLS/uL
- ABSOLUTE LYMPHOCYTE [3]: 5878.33 CELLS/uL
- ABSOLUTE MONOCYTE [3]: 47.67 CELLS/uL
- ABSOLUTE SEGMENTED NEUTROPHIL [3]: 707.33 CELLS/uL
- BASOPHIL [3]: 0%
- EOSINOPHIL [3]: 0%
- ERYTHROCYTE COUNT [3]: 5.01 x10E6/uL
- HEMATOCRIT [3]: 31.07%
- HEMOGLOBIN [3]: 12.3 G/DL
- LEUKOCYTE COUNT [3]: 6.63 x10E3/uL
- LYMPHOCYTE [3]: 88.67%
- MEAN CORPUSCULAR HEMOGLOBIN [3]: 24.73 pg
- MEAN CORPUSCULAR HEMOGLOBIN CONCENTRATION [3]: 39.77 G/DL
- MEAN CORPUSCULAR VOLUME [3]: 62.1 fL
- MONOCYTE [3]: 0.67%
- NEUTROPHIL [3]: 10.67%
- NUCLEATED RED BLOOD CELLS [3]: 0 /100WBC
- PLATELET COUNT [3]: 848.67 x10E3/uL
- ALANINE AMINOTRANSFERASE [3]: 79.33 u/L
- ALBUMIN [3]: 3.7 G/DL
- ALKALINE PHOSPHATASE [3]: 386.33 u/L
- ASPARTATE AMINOTRANSFERASE [3]: 90.33 u/L
- BLOOD UREA NITROGEN [3]: 13.33 mg/dL
- CARBON DIOXIDE [3]: 25 mmol/L
- CHLORIDE [3]: 96 MEQ/L
- CHOLESTEROL [3]: 74 mg/dL
- CREATINE PHOSPHOKINASE [3]: 147.33 u/L
- CREATININE [3]: 0.21 mg/dL
- GLUCOSE [3]: 143.33 mg/dL
- LACTATE DEHYDROGENASE [3]: 107.33 u/L
- LIPASE [3]: 12.67 u/L
- PHOSPHORUS [3]: 10.57 mg/dL
- POTASSIUM [3]: 5.5 MEQ/L
- SODIUM [3]: 138.4 MEQ/L
- TOTAL BILIRUBIN [3]: 0.13 mg/dL
- TOTAL PROTEIN [3]: 5.33 G/DL
- URIC ACID [3]: 0.87 mg/dL
